Experimental findings from patent US20180119123A1, “CRISPR/CAS-RELATED METHODS AND COMPOSITIONS FOR TREATING HIV INFECTION AND AIDS” (EDITAS MEDICINE, INC., priority 2015, published 2018) are described below.

Type in all cases: cell-based
Series [1] deals with human CCR5 gene. The experiment in a line: T7E1 endonuclease assay of CCR5 PCR product after electroporation of S. aureus Cas9 plasmid and gRNA STITCHR product into K562 cells. Conditions: 750 ng S. aureus Cas9 plasmid DNA and 250 ng STITCHR product, 48 and 72 hours after electroporation. From the text: To identify gRNAs that efficiently target disruption of the human CCR5 gene, eleven gRNAs were selected from a larger list of gRNAs obtained from in silico prediction of gRNAs with S. aureus specific PAM sequences. In silico predicted gRNAs were tiered according to the strategy described in Section 8. An abbreviated list of eleven gRNAs with the lowest predictive off-target scores were selected for subsequent screening experiments, based on proximity to the naturally occurring de1ta32 mutation in CCR5 that has been associated with resistance to HIV. The target-specific complementary region of the selected list of eleven gRNAs are depicted in Table 15.
A DNA plasmid encoding an S. aureus expression cassette (AF002) and a gRNA-specific STITCHR product, which is a DNA molecule consisting of a U6 promoter driving expression of the chimeric gRNA (i.e., a target-specific complementary sequence and the S. aureus gRNA scaffold), were electroporated into K562 cells using the Amaxa Nucleofector system and the program and protocol for K562 cells per the manufacturer's instructions. In brief, 750 ng S. aureus Cas9 plasmid DNA and 250 ng of STITCHR product were used for each gRNA. […]

Series [2] relates to CCR5 locus. The experiment in a line: T7E1 analysis of gene disruption at CCR5 after Cas9 RNP electroporation of primary human T lymphocytes. Conditions: human CD4+ T lymphocytes, WT Cas9 RNP, 5 μg each RNP per 200,000 cells, 72 hours after electroporation. From the text:
While transplantation of autologous CD34^+ HSCs genetically modified to prevent expression of the wild-type CXCR4 or the CCR5 would provide a long-term cure to HIV infection, the myeloablative conditioning associated with HSC transplantation destroys host adaptive immunity […] until the T cell pool is reconstituted after HSC engraftment is acheived, which can take several months. This delay in adaptive immune reconstitution puts patients at risk for the development of opportunistic infections during the acute phase of early engraftment following HSC transplantation. […] In this Example, single and multiplex genome editing in human T lymphocytes after electroporation of Cas9 RNP targeting the CXCR4 locus, the CCR5 locus, or both simultaneously (multiplexing) was evaluated after electroporation of CXCR4 and CCR5 gRNAs that were in vitro transcribed and modified to have an ARCA cap at the 5′ end and a polyA (20A) tail at the 3′ end. […] Table 16 depicts experimental design associated with Example 9 to evaluate gene editing as determined by T7E1 endonuclease assay analysis of the CXCR4 and CCR5 loci after electroporation of primary human T lymphocytes with S. aureus and/or S. pyogenes RNPs. […]

The subject of series [3] is CCR5 locus. The experiment in a line: T7E1 endonuclease assay at CCR5 after Cas9 RNP electroporation of human cord blood CD34+ HSCs. To be noted: human CB CD34+ HSCs, WT Cas9 RNP, 5 μg each per 200,000 cells, 72 hours after electroporation. The source says: Transplantation of autologous CD34^+ hematopoietic stem cells (HSCs, also known as hematopoietic stem/progenitor cells or HSPCs) that have been edited to disrupt expression of CXCR4 or CCR5 gene products would prevent entry of the HIV virus HSC progeny that are normally susceptible to HIV infection (e.g., macrophages and CD4 T lymphocytes). Multiplex genome editing with the Cas9 RNP complexed to modified gRNAs precisely alters more than one endogenous gene targets by creating indels at two different cut sites can lead to knock down of gene expression at multiple edited loci. In this Example, single target and multiplex genome editing was evaluated in human umbilical cord blood (CB) CD34^+ cells after electroporation of wild-type S. pyogenes Cas9, wild-type S. aureus Cas9 or D10A nickase. Briefly, Cas9 protein was complexed with modified sgRNAs targeting CXCR4 or CCR5. […] Seventy-two hours after electroporation of RNP with the Amaxa nucleofector system, CD34^+ HSCs were collected, gDNA isolated and CXCR4 and CCR5 PCR products analyzed by T7E1 endonuclease assay to evaluate targeted disruption of these HIV co-receptors (Table 19). Table 19 depicts experimental design associated with Example 10 to evaluate gene editing determined by T7E1 endonuclease assay analysis of the at CXCR4 and CCR5 loci after electroporation of primary human CD34^+ HSCs with S. aureus and/or S. pyogenes RNPs.

As for “CCR5_Sa3: S. aureus gRNA targeting CCR5; GUGGUGACAAGUGUGAUCAC (SEQ ID NO: 488) (RNA, backbone not given here; in vitro transcribed gRNA with scaffold, 5' ARCA cap, 3' polyA (20A) tail)”, the “indels in CCR5” value in series [1] is “about 39%”. Moreover, the “% editing at CCR5” value in series [2] is recorded as 1.98%; in series [3] it was 0.44%.
